In US12673954B2 (BRISTOL-MYERS SQUIBB COMPANY, priority 2021, dated 2026):
Where two headings read alike, the source gives them in different places.

Tests used:
[1] = system: NF-κB pathway, THP1-Dual™ cells; experiment: STING reporter assay in THP1-Dual cells, NF-κB pathway (SEAP, QUANTI-Blue); type: cell-based, human; settings: Homo sapiens, THP1-Dual, 20 h, read-out: NFkB (EC50 μM)
How it was run: (§1)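 Activation normalised between DMSO-only baseline and 100 μM cGAMP maximum, after 20 h compound exposure (starting at 100 μM final) at 37° C, 5% CO2. Supernatant SEAP (QUANTI-Blue, OD620) reports NF-κB; secreted luciferase (QUANTI-Luc, RLU at 5 min) reports IRF.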

[2] = system: IRF pathway, THP1-Dual™ cells; experiment: STING reporter assay in THP1-Dual cells, IRF pathway (Lucia luciferase, QUANTI-Luc); type: cell-based, human; settings: Homo sapiens, THP1-Dual, 20 h, read-out: IRF (EC50 μM)
How it was run: as §1

[3] = THP1-Dual cells, 10% human plasma, 20 hours, SEAP, 100% activation = 100 μM cGAMP
[4] = THP1-Dual cells, 10% human plasma, 20 hours, Lucia luciferase, 100% activation = 100 μM cGAMP

O=C(OCC(F)F)c1cc(F)cc2cc(CNC(=O)c3cnn4cccnc34)oc12 [EXAMPLE 235, 2,2-Difluoroethyl 5-fluoro-2-((pyrazolo[1,5-a]pyrimidine-3-carboxamido)methyl)benzofuran-7-carboxylate]
EC50 [1, 3]: 0.68 µM
EC50 [2, 4]: 0.69 µM

O=C(OC1CC(F)(F)C1)c1cc(F)cc2cc(CNC(=O)c3cnn4cccnc34)oc12 [EXAMPLE 236, 3,3-Difluorocyclobutyl 5-fluoro-2-((pyrazolo[1,5-a]pyrimidine-3-carboxamido)methyl)benzofuran-7-carboxylate]
EC50 [1, 3]: 1.8 µM
EC50 [2, 4]: 1.3 µM

O=C(OC(CF)CF)c1cc(F)cc2cc(CNC(=O)c3cnn4cccnc34)oc12 [EXAMPLE 237, 1,3-Difluoropropan-2-yl 5-fluoro-2-((pyrazolo[1,5-a]pyrimidine-3-carboxamido)methyl)benzofuran-7-carboxylate]
EC50 [1, 3]: 1.2 µM
EC50 [2, 4]: 1.2 µM

O=C(OC(C(F)(F)F)C(F)(F)F)c1cc(F)cc2cc(CNC(=O)c3cnn4cccnc34)oc12 [EXAMPLE 238, 1,1,1,3,3,3-Hexafluoropropan-2-yl 5-fluoro-2-((pyrazolo[1,5-a]pyrimidine-3-carboxamido)methyl)benzofuran-7-carboxylate]
EC50 [1, 3]: 1.7 µM
EC50 [2, 4]: 1.6 µM

O=C(OCC(F)(F)F)c1cc(Cl)cc2cc(CNC(=O)c3cnn4cccnc34)oc12 [EXAMPLE 239, 2,2,2-Trifluoroethyl 5-chloro-2-((pyrazolo[1,5-a]pyrimidine-3-carboxamido)methyl)benzofuran-7-carboxylate]
EC50 [1, 3]: 0.39 µM
EC50 [2, 4]: 0.53 µM

CC(C)OC(=O)c1cc(Cl)cc2cc(CNC(=O)c3cnn4cccnc34)oc12 [EXAMPLE 240, Isopropyl 5-chloro-2-((pyrazolo[1,5-a]pyrimidine-3-carboxamido)methyl)benzofuran-7-carboxylate]
EC50 [1, 3]: 0.61 µM
EC50 [2, 4]: 0.78 µM

N#CC1CC(OC(=O)c2cc(Cl)cc3cc(CNC(=O)c4cnn5cccnc45)oc23)C1 (stereo not shown) [EXAMPLE 241, 3-Cyanocyclobutyl 5-chloro-2-((pyrazolo[1,5-a]pyrimidine-3-carboxamido)methyl)benzofuran-7-carboxylate]
EC50 [1, 3]: 2.3 µM
EC50 [2, 4]: 2.3 µM

COC[C@@H](C)OC(=O)c1cc(Cl)cc2cc(CNC(=O)c3cnn4cccnc34)oc12 [EXAMPLE 242, (R)-1-Methoxypropan-2-yl 5-chloro-2-((pyrazolo[1,5-a]pyrimidine-3-carboxamido)methyl)benzofuran-7-carboxylate]
EC50 [1, 3]: 2.1 µM
EC50 [2, 4]: 2.4 µM

O=C(OC1CCCC1)c1cc(Cl)cc2cc(CNC(=O)c3cnn4cccnc34)oc12 [EXAMPLE 243, Cyclopentyl 5-chloro-2-((pyrazolo[1,5-a]pyrimidine-3-carboxamido)methyl)benzofuran-7-carboxylate]
EC50 [1, 3]: 1.9 µM
EC50 [2, 4]: 1.6 µM

O=C(OC1CCCCC1)c1cc(Cl)cc2cc(CNC(=O)c3cnn4cccnc34)oc12 [EXAMPLE 244, Cyclohexyl 5-chloro-2-((pyrazolo[1,5-a]pyrimidine-3-carboxamido)methyl)benzofuran-7-carboxylate]
EC50 [1, 3]: 1.9 µM
EC50 [2, 4]: 2 µM

O=C(OC1CC(F)(F)C1)c1cc(Cl)cc2cc(CNC(=O)c3cnn4cccnc34)oc12 [EXAMPLE 245, 3,3-Difluorocyclobutyl 5-chloro-2-((pyrazolo[1,5-a]pyrimidine-3-carboxamido)methyl)benzofuran-7-carboxylate]
EC50 [1, 3]: 1 µM
EC50 [2, 4]: 1.8 µM

O=C(OC(CF)CF)c1cc(Cl)cc2cc(CNC(=O)c3cnn4cccnc34)oc12 [EXAMPLE 246, 1,3-Difluoropropan-2-yl 5-chloro-2-((pyrazolo[1,5-a]pyrimidine-3-carboxamido)methyl)benzofuran-7-carboxylate]
EC50 [1, 3]: 1 µM
EC50 [2, 4]: 1.1 µM

CC(C)(C)OC(=O)N1CC(OC(=O)c2cc(Cl)cc3cc(CNC(=O)c4cnn5cccnc45)oc23)C1 [EXAMPLE 247, Tert-butyl 3-((5-chloro-2-((pyrazolo[1,5-a]pyrimidine-3-carboxamido)methyl)benzofuran-7-carbonyl)oxy)azetidine-1-carboxylate]
EC50 [1, 3]: 13 µM
EC50 [2, 4]: 9 µM

O=C(OC1CNC1)c1cc(Cl)cc2cc(CNC(=O)c3cnn4cccnc34)oc12 [EXAMPLE 248, Azetidin-3-yl 5-chloro-2-((pyrazolo[1,5-a]pyrimidine-3-carboxamido)methyl)benzofuran-7-carboxylate]
EC50 [1, 3]: 98 µM
EC50 [2, 4]: 73 µM

O=C(OCCOCCO)c1cc(Cl)cc2cc(CNC(=O)c3cnn4cccnc34)oc12 [EXAMPLE 249, 2-(2-Hydroxyethoxy)ethy1 5-chloro-2-((pyrazolo[1,5-a]pyrimidine-3-carboxamido)methyl)benzofuran-7-carboxylate]
EC50 [1, 3]: 2.5 µM
EC50 [2, 4]: 2.4 µM

O=C(OCCCCO)c1cc(Cl)cc2cc(CNC(=O)c3cnn4cccnc34)oc12 [EXAMPLE 250, 4-Hydroxybutyl 5-chloro-2-((pyrazolo[1,5-a]pyrimidine-3-carboxamido)methyl)benzofuran-7-carboxylate]
EC50 [1, 3]: 0.62 µM
EC50 [2, 4]: 1.2 µM

O=C(OCC(F)(F)C(F)(F)CO)c1cc(Cl)cc2cc(CNC(=O)c3cnn4cccnc34)oc12 [EXAMPLE 251, 2,2,3,3-Tetrafluoro-4-hydroxybutyl 5-chloro-2-((pyrazolo[1,5-a]pyrimidine-3-carboxamido)methyl)benzofuran-7-carboxylate]
EC50 [1, 3]: 1 µM
EC50 [2, 4]: 0.93 µM

O=C(OCc1cccc(CO)c1)c1cc(Cl)cc2cc(CNC(=O)c3cnn4cccnc34)oc12 [EXAMPLE 252, 3-(Hydroxymethyl)benzyl 5-chloro-2-((pyrazolo[1,5-a]pyrimidine-3-carboxamido)methyl)benzofuran-7-carboxylate]
EC50 [1, 3]: 5.4 µM
EC50 [2, 4]: 6.4 µM

O=C(OCC(F)(F)C(F)(F)C(F)(F)CO)c1cc(Cl)cc2cc(CNC(=O)c3cnn4cccnc34)oc12 [EXAMPLE 253, 2,2,3,3,4,4-Hexafluoro-5-hydroxypentyl 5-chloro-2-((pyrazolo[1,5-a]pyrimidine-3-carboxamido)methyl)benzofuran-7-carboxylate]
EC50 [1]: 0.93 µM
EC50 [2]: 0.96 µM

O=C(Oc1ccccc1)c1cc(Cl)cc2cc(CNC(=O)c3cnn4cccnc34)oc12 [EXAMPLE 254, Phenyl 5-chloro-2-((pyrazolo[1,5-a]pyrimidine-3-carboxamido)methyl)benzofuran-7-carboxylate]
EC50 [1, 3]: 0.88 µM
EC50 [2, 4]: 0.87 µM

O=C(OCCN1CCOCC1)c1cc(Cl)cc2cc(CNC(=O)c3cnn4cccnc34)oc12 [EXAMPLE 255, 2-Morpholinoethyl 5-chloro-2-((pyrazolo[1,5-a]pyrimidine-3-carboxamido)methyl)benzofuran-7-carboxylate]
EC50 [1, 3]: 19 µM
EC50 [2, 4]: 13 µM

O=C(OCCCN1CCOCC1)c1cc(Cl)cc2cc(CNC(=O)c3cnn4cccnc34)oc12 [EXAMPLE 256, 3-Morpholinopropyl 5-chloro-2-((pyrazolo[1,5-a]pyrimidine-3-carboxamido)methyl)benzofuran-7-carboxylate]
EC50 [1, 3]: 4.8 µM
EC50 [2, 4]: 6.7 µM

CN1CCN(CCOC(=O)c2cc(Cl)cc3cc(CNC(=O)c4cnn5cccnc45)oc23)CC1 [EXAMPLE 257, 2-(4-Methylpiperazin-1-yl)ethyl 5-chloro-2-((pyrazolo[1,5-a]pyrimidine-3-carboxamido)methyl)benzofuran-7-carboxylate]
EC50 [1, 3]: 11 µM
EC50 [2, 4]: 28 µM
